Values of other authors as cited in patent publication EP2229962A1, “Medical-surgical devices with antibacterial coating for human or animal implant and a method for their production” (Martelli, Laura, priority 2009, dated 2010).
Where two headings read alike, the source gives them in different places.

Compound: [Ag+] [Ag^+ ions, Ag^+]
- concentration above which there are cytotoxic effects to the surrounding tissue (surrounding tissue): > 35 ppb
- concentration of Ag^+ ions needed to perform an antibacterial action (bacteria; 1 ppb equivalent to 1 µg/l): at least 1 ppb
- concentration of Ag^+ ions needed to perform an antibacterial action (bacteria; in the case of certain bacteria): ≥ 0.1 ppb
